From BigSolDB 2.1

CO/N=C(\C(=O)Sc1nc2ccccc2s1)c1csc(N)n1
Details	solubility (mole fraction)
in 1,2-dichloroethane, 277.83 K	0.000358
in 1,2-dichloroethane, 282.77 K	0.000458
in 1,2-dichloroethane, 287.63 K	0.000619
in 1,2-dichloroethane, 292.84 K	0.000876
in 1,2-dichloroethane, 297.85 K	0.00118
in 1,2-dichloroethane, 302.64 K	0.00154
in THF, 278.4 K	0.0243
in THF, 283.75 K	0.0259
in THF, 288.8 K	0.028
in THF, 293.25 K	0.0311
in THF, 298.06 K	0.0352
in THF, 302.95 K	0.0397
in acetone, 278.32 K	0.00245
in acetone, 283.31 K	0.00286
in acetone, 288.15 K	0.00334
in acetone, 293.2 K	0.0039
in acetone, 298.54 K	0.00472
in acetone, 303.28 K	0.0057
in acetonitrile, 279.45 K	0.000216
in acetonitrile, 283.46 K	0.000262
in acetonitrile, 288.45 K	0.000342
in acetonitrile, 292.98 K	0.000451
in acetonitrile, 297.47 K	0.000581
in acetonitrile, 302.45 K	0.000761
in dichloromethane, 278.6 K	0.000719
in dichloromethane, 283.64 K	0.000967
in dichloromethane, 288.46 K	0.00128
in dichloromethane, 294.03 K	0.00171
in dichloromethane, 298.71 K	0.00217
in dichloromethane, 303.44 K	0.00267
